Experimental findings from patent publication US20070299089A1, “Use of A2A Adenosine Receptor Agonists in the Treatment of Ischemia” (CV THERAPEUTICS, INC., priority 2006, published 2007) are described below.

Converted amounts (≈) assume the structure as drawn. Some results are limits rather than exact numbers.

In series [1] the test system is mouse isolated hearts. The series is described as follows: Coronary vascular resistance in Langendorff-perfused isolated hearts, Protocol 2 (CPP lowered to 30 mmHg and maintained for 50 min). As to conditions: n=6. Here is the method: (§1) The objective of this example was to determine whether the selective and stable A2A agonist, regadenoson, can prevent or modify coronary microcirculation vasoconstriction during ischemia. To this purpose, in 60 mouse isolated hearts perfused in Langendorff configuration coronary vascular resistance (CVR) was continuously monitored for 70 min during various interventions using two different protocols. In hearts (n=9) perfused at a constant coronary perfusion pressure (CPP) of 65 mmHg CVR remained stable throughout the 70 min of the experiment.
In Protocol 2, CPP was lowered to 30 mmHg at 20 min and maintained for the remaining 50 min. In untreated hearts (n=9), the sustained lowering of CPP was accompanied by a progressive rise in CVR up to the end of the experiment when it reached a maximum of 240%±21 above baseline. Addition of regadenoson (10 nM) to the perfusate either at 10 (n=6) or 30 (n=6) min after lowering CPP caused a rapid and progressive vasodilation thereby bringing CVR to baseline values within 10 min. In summary, the isolated heart reacts to lowering of CPP with a progressive and severe vasoconstriction that can be prevented by pre-treatment with an A2A agonist.

Series [2] in a line: Solubility in water. In kind it is physicochemical. Here is the method: In one aspect of this invention, mammalian ischemia is treated with a pharmaceutical composition including CVT-3146—regadenoson. Regadenoson has solubility in water of about 50 micrograms/mL. Therefore, regadenoson can be dissolved and administered in water so long as the desired weight amount of regadenoson can be administered in an acceptable volume. For example, a dose of about 400 micrograms can be administered in 8 mL of water. If this volume is too great for administration purposes, or if the pharmaceutical composition will be stored at other than room temperature (RT), then additional ingredients can be added to the composition to increase the solubility of regadenoson in the composition and/or to provide the resulting pharmaceutical composition with other improved properties such as improved stability and storage properties.

The subject of series [3] is mouse isolated hearts. The series is described as follows: Coronary vascular resistance in Langendorff-perfused isolated hearts, Protocol 1 (CPP lowered to 30 mmHg for 20 min, then restored to 65 mmHg). As to conditions: for increase in CVR during lowering of CPP: n=6, p<0.001. As to the method: as §1
In Protocol 1, CPP was lowered to 30 mmHg at 20 min, maintained for the following 20 min and restored to 65 mmHg for the remaining 30 min. In untreated hearts (n=12), lowering CPP for 20 min increased CVR up to a maximum of 191%±9 above baseline (P<0.001).

Turning to `CNC(=O)c1cnn(-c2nc(N)c3ncn([C@@H]4O[C@H](CO)[C@@H](O)[C@H]4O)c3n2)c1` [regadenoson, (1-{9-[(4S,2R,3R,5R)-3,4-dihydroxy-5-(hydroxymethyl)oxolan-2-yl]-6-aminopurin-2-yl}pyrazol-4-yl)-N-methylcarboxamide], the “time to bring CVR to baseline values” in series [1] (regadenoson 10 nM added to perfusate 10 min after lowering CPP) and in series [1] (regadenoson 10 nM added to perfusate 30 min after lowering CPP) was at most 10 min in each case. In addition, the solubility in series [2] is around 50 µg/mL (≈ 128 µM). Further, in series [3] (regadenoson 3 nM, CPP 30 mmHg for 20 min, n=6, untreated hearts 191%±9), the “maximum increase in CVR above baseline during lowering of CPP” value is 131%±15. Further, the “elevated CVR remaining after restoring CPP to 65 mmHg” value in series [3] (regadenoson 3 nM, untreated hearts 153%±10 above baseline) is on record as “significantly reduced”; in series [3] (regadenoson 10 nM, p<0.01), “abolished”; in series [3] (regadenoson 30 nM, p<0.01) it was “abolished”. Besides, the “increase in CVR during lowering of CPP” value in series [3] (regadenoson 10 nM, CPP 30 mmHg for 20 min) is “abolished the increase in CVR”; in series [3] (regadenoson 30 nM, CPP 30 mmHg for 20 min) it was “abolished the increase in CVR”.
